Measured values as given in patent publication US20020055488A1, “Prevention and treatment of streptococcal and staphylococcal infection” (priority 2000, published 2002).

Assays:
[1] = tested on: Group A streptococcus (GAS); assay: GAS attachment to murine keratinocyte cell line PAM2.12 with exogenous hyaluronic acid; type: cell-based, Streptococcus pyogenes; settings: for inhibition of GAS attachment to PAM2.12 keratinocytes: polysaccharide added together with GAS, 45 minutes incubation
Description: For bacterial adherence assays, keratinocytes were seeded at 10^5 cells per well in collagen-coated tissue culture wells (Nalge Nunc International, Naperville, Ill.), incubated for 3 days at 34° C. in 8% CO2, washed, and overlaid with medium containing 10^6 CFU of GAS per well. After incubation for 1 hour at 34° C. in 8% CO2 the keratinocyte monolayers were washed twice to remove nonadherent bacteria, then the number of cell-associated bacteria was determined by quantitative culture after releasing the keratinocytes with trypsin and lysing them in sterile water, experiments testing the effects of exogenous hyaluronic acid on GAS adherence were performed using the mouse keratinocyte cell line, PAM 2.12 (Song, I. S. 2000, Exp. Dermatol. 9:42-52). Cells were seeded in collagen-coated tissue culture wells at 10^5 cells per well, cultured for 3 days at 37° C. in 5% CO2, then inoculated with 10^6 CFU of GAS per well in medium containing exogenous hyaluronic acid (from rooster comb, Sigma Chemicals, St. Louis, Mo.), no inhibitor, or a control polysaccharide, alginic acid, a high-molecular-weight polymer of mannuronic acid and guluronic acid (Protonal Durvillea Alginate, Pronova. Biopolymer, Inc., Portsmouth, N.H.). Cells were incubated for 45 minutes at 37° C. in 5% CO2, then processed for enumeration of adherent bacteria as described above. In experiments to test whether exogenous hyaluronic acid could promote dissociation of GAS attached to keratinocytes, GAS were allowed to attach to keratinocytes in the absence of inhibitor; […], no inhibitor, or alginic acid. After 45 minutes of incubation, the number of adherent bacteria was enumerated as described above.
To investigate the specificity of the interaction between the GAS capsule and CD44 on epithelial cells, the ability of exogenous hyaluronic acid to compete with GAS for binding to murine keratinocytes was examined. Addition of exogenous hyaluronic acid inhibited GAS attachment to the murine keratinocyte cell line PAM2.12 by >95% (P<0.03, FIG. 5). Alginic acid, another high molecular weight acidic polysaccharide, had no effect, supporting the hypothesis that adherence depends on a specific interaction between the GAS hyaluronic acid capsule and CD44.

[2] = tested on: Group B Streptococcus (GBS, strain 515); assay: Bacterial binding to human keratinocyte monolayers after pre-incubation, GBS; type: cell-based; settings: 10 bacteria per keratinocyte, 1 hour, alginate control
Description: (§1) Keratinocyte monolayers were pre-incubated with alginate (AL, solid bars) or hyaluronic cid (HA, hatched bars) prior to surface inoculation with either Group A Streptococcus (GAS, strain 950771), Group B Streptococcus (GBS, strain 515), Streptococcus pneumoniae (S. pneumo, type 6), or Staphylococcus aureus (S. aureus, type 8) at a multiplicity of infection of 10 bacteria per keratinocyte for 1 hour.

[3] = tested on: Group A streptococcus (GAS); assay: GAS pharyngeal colonization in mice after intranasal pretreatment with hyaluronic acid; type: in vivo, Streptococcus pyogenes; settings: intranasal 20 μl of 1 mg/ml, 5 hours prior to GAS inoculation, compared to PBS or alginic acid pretreated, 3 days
Description: For pharyngeal colonization experiments, 4 to 6 week-old female mice were anesthetized by inhalation of methoxyflurane, then inoculated intranasally with approximately 5×10^6 CFU of GAS in 20 μl phosphate-buffered saline, pH 7.4. Throat swabs were collected from anesthetized mice daily and were plated on Todd-Hewitt-blood agar containing streptomycin 500 μg/ml to inhibit growth of normal flora. For some experiments, the bacterial inoculum was suspended in phosphate-buffered saline containing 50μg of mAb, either KM81, a rat anti-mouse CD44 mAb (Miyake, K. 1990, J. Exp. Med. 171:477-488), or 4H1, an isotype-matched control monoclonal antibody directed to Pseudomonas aeruginosa lipopolysaccharide (donated by Michael Preston, Brigham and Women's Hospital, Boston, Mass.). Both antibodies were purified by protein G affinity chromatography (GammaBind Plus Sepharose, Amersham Pharmacia Biotech, Piscataway, N.J.) prior to use.
Differences in attachment of GAS to keratinocytes were evaluated Using the Mann Whitney U test (Instat version 1.12, GraphPad Software, Inc. San Diego, Calif.). Repeated measures logistic regression was used to test for the effect of anti-CD44 mAb or erogenous hyaluronic acid treatment on the proportion of mice with positive throat cultures over three days of observation (Zeger, S. L. et al. 1986, Biometrics. 42:121-130). […]

[4] = tested on: Streptococcus pneumoniae (S. pneumo, type 6); assay: Bacterial binding to human keratinocyte monolayers after pre-incubation, S. pneumoniae; type: cell-based; settings: 10 bacteria per keratinocyte, 1 hour, alginate control
Description: as §1

[5] = tested on: Group A Streptococcus (GAS, strain 950771); assay: Bacterial binding to human keratinocyte monolayers after pre-incubation, GAS; type: cell-based, Streptococcus pyogenes; settings: 10 bacteria per keratinocyte, 1 hour, alginate control
Description: as §1

[6] = tested on: Staphylococcus aureus (S. aureus, type 8); assay: Bacterial binding to human keratinocyte monolayers after pre-incubation, S. aureus; type: cell-based; settings: 10 bacteria per keratinocyte, 1 hour, alginate control
Description: as §1

Substance | inhibition of GAS attachment to PAM2.12 keratinocytes [1] | reduction of GAS attachment to keratinocytes ([1]; addition of hyaluronic acid delayed for 2 hours) | reduction in bacterial attachment to keratinocytes ([1]; hyaluronic acid added up to 45 minutes after adding GAS) | inhibition of binding of GBS to human keratinocytes [2] | reduction of GAS pharyngeal colonization (positive throat cultures) [3] | inhibition of binding of S. pneumoniae to human keratinocytes [4] | inhibition of binding of GAS to human keratinocytes [5] | inhibition of binding of S. aureus to human keratinocytes [6]
alginic acid | had no effect |  |  |  |  |  |  | 
hyaluronic acid | > 95% | 70-80% | > 90% | more than 80% | 60 to 80% | more than 80% | more than 80% | more than 80%
